Each block holds one molecule with its values, some of them ahead of it.
Tests used:
[1] = signs of drug toxicity during the in-vivo tests; details: during the in-vivo tests in mice
Procedure: (§1) a. Sub-cutanvenous administration: Groups of mice were infected inter peritoneally with Escherichia coli JT39. At 1 and 5 hours post infection the mice were treated with amoxycillin (Amox.) or with amoxycillin and synergist. The solutions were made up in phosphate buffer. The results were as follows:
(§2) b. Oral administration: Groups of mice were infected inter peritoneally with Escherichia coli JT39. At 1, 3 and 5 hours post-infection the mice were treated with amoxycillin or with amoxycillin and synergist. The solutions were made up in phosphate buffer.

[2] = test system: gram negative bacteria such as Escherichia and Klebsiella and gram positive bacteria such as Staphylococcus; assay: summary of synergism with penicillins; details: against gram negative and gram positive bacteria
Procedure: as §1, §2

Escherichia coli JT 39 = assay: CD50 in intraperitoneal Escherichia coli JT 39 infection in mice, sub-cutaneous dosing (Demonstration 2); format: in vivo, mice infected with Escherichia coli; details: with amoxycillin, E. coli JT 39 infection in mice
Procedure: b. […] Dosing was sub-cutaneous and 1 and 5 hours post infection.

Kleb. E 70 = assay: microliter MIC test, Kleb. E 70; format: cell-based, Klebsiella
Procedure: (§3) a. The antibacterial and synergistic activity of the title compound (referred to as "Synergist" in the Table) was determined by a conventional microliter method.

Proteus C 889 = assay: microliter MIC test, Proteus C 889; format: cell-based; details: for MIC of ampicillin with title compound: trailing end point
Procedure: as §3

Staph. Russell = assay: microliter MIC test, Staph. Russell; format: cell-based, Staphylococcus
Procedure: as §3

E. Coli JT 410 = assay: microliter MIC test, E. coli JT 410; format: cell-based, Escherichia coli
Procedure: as §3

Structure (SMILES): O=C1CC(OC/C=C2\O[C@@H]3CC(=O)N3[C@H]2C(=O)O)N1 (some centres unmarked) [Example 2, Sodium 9-O-(azetidin-2'-on-4'-yl)clavulanate]
- signs of drug toxicity [1]: No signs of drug toxicity were observed
- synergism with penicillins such as amoxycillin [2]: effective synergist for penicillins such as amoxycillin against gram negative bacteria such as Escherichia and Klebsiella and gram positive bacteria such as Staphylococcus

Structure (SMILES): CC(NC=O)OC/C=C1\O[C@@H]2CC(=O)N2[C@H]1C(=O)O (some centres unmarked) [Example 9, Lithium 9-O-(1-formamidoethyl)clavulanate]
- effect on the effectiveness of amoxycillin (Escherichia coli JT 39): found to enhance the effectiveness of amoxycillin

- MIC of ampicillin with title compound/synergist (Kleb. E 70; Amp. + 1 μg/ml of the compound): 6.25 µg/mL
- MIC of ampicillin with title compound/synergist (Kleb. E 70; Amp. + 5 μg/ml of the compound): 1.5 µg/mL
- MIC (Kleb. E 70; alone): 62.5 µg/mL
- MIC of ampicillin with title compound (Proteus C 889; Amp. + 1 μg/ml of the compound): 8 µg/mL
- MIC of ampicillin with title compound (Proteus C 889; Amp. + 5 μg/ml of the compound): 2 µg/mL
- MIC (Proteus C 889; alone): 250 µg/mL
- MIC of ampicillin with title compound/synergist (Staph. Russell; Amp. + 1 μg/ml of the compound): 1.25 µg/mL
- MIC of ampicillin with title compound/synergist (Staph. Russell; Amp. + 5 μg/ml of the compound): 0.15 µg/mL
- MIC (Staph. Russell; alone): 8 µg/mL
- MIC of ampicillin with title compound/synergist (E. Coli JT 410; Amp. + 5 μg/ml of the compound): 62.5 µg/mL
- MIC (E. Coli JT 410; alone): 62.5 µg/mL
Structure (SMILES): NCC(=O)NCOCC=C1OC2CC(=O)N2C1C(=O)O (centres unmarked) [Example 11, 9-O-(Glycylaminomethyl)clavulanic acid]
